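Step 1: Grow cells in 96-well plates. Step 2: Expose to compound for 48 hours at 5 concentrations. Step 3: Interpolate endpoints linearly; if unreached, use highest concentration. Abbreviation: GI50, concentration required for 50% inhibition of growth.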 The source made the active and inactive calls. Cut-off read from the data, not from the text of the source: active = GI50 up to about 1.1 µM and inactive = higher.
Experiments:
Experiment in all cases: NCI tumour cell line growth inhibition, 48 h
[1] = test system: SF-295
[2] = test system: COLO 205
[3] = test system: MCF7
[4] = test system: HCT-116
[5] = test system: RPMI-8226
[6] = test system: NCI-H226
[7] = test system: OVCAR-8
[8] = test system: SF-268
[9] = test system: OVCAR-5
[10] = test system: U-251
[11] = test system: A498
[12] = test system: Malme-3M
[13] = test system: RXF 393
[14] = test system: HT-29
[15] = test system: CCRF-CEM
[16] = test system: SK-OV-3
[17] = test system: TK-10
[18] = test system: MDA-N
[19] = test system: SK-MEL-28
[20] = test system: HCT-15

| SMILES | GI50 [1] | GI50 [2] | GI50 [3] | GI50 [4] | GI50 [5] | GI50 [6] | GI50 [7] | GI50 [8] | GI50 [9] | GI50 [10] | GI50 [11] | GI50 [12] | GI50 [13] | GI50 [14] | GI50 [15] | GI50 [16] | GI50 [17] | GI50 [18] | GI50 [19] | GI50 [20] |
| --- | --- | --- | --- | --- | --- | --- | --- | --- | --- | --- | --- | --- | --- | --- | --- | --- | --- | --- | --- | --- |
| COc1cc(/C=C2\CCC(CN(C)C)C2=O)ccc1OC(=O)c1ccccc1 (stereo unspecified) | 17.7 µM (inactive) | 5.69 µM (inactive) | 6.25 µM (inactive) | 6.68 µM (inactive) | 2.31 µM (inactive) | 18.2 µM (inactive) | 8.59 µM (inactive) | 12.3 µM (inactive) | 18.8 µM (inactive) | 16.2 µM (inactive) | 18.3 µM (inactive) | 15.9 µM (inactive) | 7.8 µM (inactive) | 8.07 µM (inactive) | 1.96 µM (inactive) | 23.1 µM (inactive) | 11.3 µM (inactive) | 15.4 µM (inactive) | 15.1 µM (inactive) | 8.17 µM |
| ClC(Cl)(Cl)C1CCOC1n1nc2ccccc2n1 (stereo unspecified) | > 100 µM (inactive) | > 100 µM (inactive) | > 100 µM (inactive) | > 100 µM (inactive) |  | > 100 µM (inactive) | > 100 µM (inactive) | > 100 µM (inactive) | > 100 µM (inactive) | > 100 µM (inactive) | > 100 µM (inactive) | > 100 µM (inactive) | > 100 µM (inactive) | > 100 µM (inactive) | > 100 µM (inactive) | > 100 µM (inactive) | > 100 µM (inactive) | > 100 µM (inactive) |  | > 100 µM |
| CC(C)(N)C(=O)N[C@@H]1C(=O)N2[C@@H]1SC(C)(C)[C@@H]2C(=O)O | > 100 µM (inactive) | > 100 µM (inactive) | > 100 µM (inactive) | > 100 µM (inactive) | > 100 µM (inactive) | > 100 µM (inactive) | > 100 µM (inactive) | > 100 µM (inactive) | > 100 µM (inactive) | > 100 µM (inactive) | > 100 µM (inactive) | > 100 µM (inactive) | > 100 µM (inactive) | > 100 µM (inactive) |  | > 100 µM (inactive) | > 100 µM (inactive) | > 100 µM (inactive) | > 100 µM (inactive) | > 100 µM |
| O=C1C(O)=C(CC=C(Cl)Cl)C(=O)c2ccccc21 |  | 19.5 µM (inactive) | 8.87 µM (inactive) | 1.36 µM (inactive) | 2.28 µM (inactive) |  | 5.48 µM (inactive) | 11.7 µM (inactive) | 47.5 µM (inactive) | 2.62 µM (inactive) | 30 µM (inactive) | 10.8 µM (inactive) | 28.7 µM (inactive) | 4.6 µM (inactive) | 2.82 µM (inactive) | 41.6 µM (inactive) | 38.9 µM (inactive) | 16.4 µM (inactive) | 23.4 µM (inactive) | 0.757 µM |
| O=c1c(NCc2ccccc2)c(C2(c3ccccc3F)SCCCS2)c1=O | > 100 µM (inactive) | > 100 µM (inactive) | > 100 µM (inactive) | > 100 µM (inactive) |  | > 100 µM (inactive) | > 100 µM (inactive) | > 100 µM (inactive) | > 100 µM (inactive) | > 100 µM (inactive) | 82.8 µM (inactive) |  | > 100 µM (inactive) | > 100 µM (inactive) | > 100 µM (inactive) | > 100 µM (inactive) | > 100 µM (inactive) | 41.9 µM (inactive) | > 100 µM (inactive) | > 100 µM |
| Cc1ccc(Nc2nnc3n2S(=O)(=O)c2cc(C)c(Cl)cc2S3)cc1 | 3.22 µM (inactive) |  | 5.26 µM (inactive) | 6.37 µM (inactive) | 18.4 µM (inactive) | 10.7 µM (inactive) | 12.6 µM (inactive) | 4.25 µM (inactive) | 14.1 µM (inactive) | 4.66 µM (inactive) | 15.4 µM (inactive) |  | 10.5 µM (inactive) | 10.3 µM (inactive) |  |  | 35.2 µM (inactive) | 1.7 µM (inactive) | 19.6 µM (inactive) | 5.05 µM |
| CCOC(=O)C1=CNC(C(=O)OCC)C1c1cccn1-c1ccc(Cl)cc1[N+](=O)[O-] (stereo unspecified) | 16.4 µM (inactive) | 31.2 µM (inactive) | 20.6 µM (inactive) | 17.1 µM (inactive) |  | 20.1 µM (inactive) | 25.8 µM (inactive) | 18.2 µM (inactive) | 12.5 µM (inactive) | 20.7 µM (inactive) | 50.7 µM (inactive) |  | 14.6 µM (inactive) | 16.1 µM (inactive) | 24.5 µM (inactive) | 32.7 µM (inactive) | 13.1 µM (inactive) | 22 µM (inactive) | 26.2 µM (inactive) | 21.5 µM |
| CS(=O)(=O)N1CC(CI)c2ccc(O)cc21 (stereo unspecified) | 3.51 µM (inactive) | 2.88 µM (inactive) | 0.925 µM (active) | 2.98 µM (inactive) | 1.61 µM (inactive) | 3.5 µM (inactive) | 2.89 µM (inactive) | 1.32 µM (inactive) | 2.29 µM (inactive) | 2.49 µM (inactive) | 2.77 µM (inactive) | 1.93 µM (inactive) | 1.07 µM (active) | 3.4 µM (inactive) | 0.807 µM (active) |  | 2.28 µM (inactive) | 2.54 µM (inactive) | 3.23 µM (inactive) | 3.13 µM |
| CC(C)(C)c1ccc(-c2nc3ccc([N+](=O)[O-])cc3c(=O)o2)cc1 | 20.8 µM (inactive) | 24.4 µM (inactive) | 34.1 µM (inactive) | 23.4 µM (inactive) | 30.9 µM (inactive) |  | 20.9 µM (inactive) | 35.7 µM (inactive) | 32.8 µM (inactive) | 15 µM (inactive) | 29.9 µM (inactive) | 28.9 µM (inactive) | 42.6 µM (inactive) | 24.7 µM (inactive) | 20.1 µM (inactive) | 31.5 µM (inactive) | 38.8 µM (inactive) | 31.6 µM (inactive) | 34.4 µM (inactive) | 22.6 µM |
| CNC(=O)N1CN(c2ccccc2)C2(CCN(CCCC3(c4ccc(F)cc4)OCCO3)CC2)C1=O | > 100 µM (inactive) | > 100 µM (inactive) | > 100 µM (inactive) | > 100 µM (inactive) | > 100 µM (inactive) | > 100 µM (inactive) |  | > 100 µM (inactive) | > 100 µM (inactive) | > 100 µM (inactive) | > 100 µM (inactive) | > 100 µM (inactive) | > 100 µM (inactive) | > 100 µM (inactive) | > 100 µM (inactive) | > 100 µM (inactive) | > 100 µM (inactive) | > 100 µM (inactive) | > 100 µM (inactive) | > 100 µM |
| O=C(CCNC12CC3CC(CC(C3)C1)C2)c1ccccc1 | 20 µM (inactive) | 15 µM (inactive) | 19.3 µM (inactive) | 15.2 µM (inactive) | 8.13 µM (inactive) | 33.1 µM (inactive) | 21.6 µM (inactive) | 24.6 µM (inactive) | 21.2 µM (inactive) | 15.1 µM (inactive) | 17.4 µM (inactive) | 18.2 µM (inactive) | 20.1 µM (inactive) | 2.79 µM (inactive) | 11.6 µM (inactive) |  | 18.2 µM (inactive) | 16 µM (inactive) | 22.3 µM (inactive) | 16.5 µM |
| NC(=O)NC(=O)c1cccc(NC(=O)CBr)c1 | 0.197 µM (active) | < 0.01 µM (active) | < 0.01 µM (active) | < 0.01 µM (active) | < 0.0141 µM (active) | < 0.0188 µM (active) | < 0.0172 µM (active) | < 0.0158 µM (active) | < 0.0204 µM (active) | < 0.018 µM (active) | 0.102 µM (active) |  | < 0.019 µM (active) | < 0.0168 µM (active) | < 0.01 µM (active) | 0.0272 µM (active) | < 0.0231 µM (active) | < 0.0134 µM (active) | 1.44 µM (inactive) | < 0.0161 µM |
| Nc1ncnc2c1ccn2CC=C(CO)CO | > 100 µM (inactive) |  | > 100 µM (inactive) | > 100 µM (inactive) | > 100 µM (inactive) | 8.07 µM (inactive) | > 100 µM (inactive) | > 100 µM (inactive) | > 100 µM (inactive) | > 100 µM (inactive) | > 100 µM (inactive) | > 100 µM (inactive) | > 100 µM (inactive) | > 100 µM (inactive) | > 100 µM (inactive) | > 100 µM (inactive) | > 100 µM (inactive) | > 100 µM (inactive) | > 100 µM (inactive) | > 100 µM |
| CCOC(=O)c1c(N)sc2c1C(C(=O)OCC)CCCC2 (stereo unspecified) |  | 85.7 µM (inactive) | > 100 µM (inactive) | 43.1 µM (inactive) | 46.2 µM (inactive) | > 100 µM (inactive) | 89.3 µM (inactive) |  | > 100 µM (inactive) | 66.5 µM (inactive) | 20.2 µM (inactive) | > 100 µM (inactive) | 17.3 µM (inactive) | > 100 µM (inactive) |  |  | > 100 µM (inactive) | 69.5 µM (inactive) | > 100 µM (inactive) | 67.3 µM |
| FC(F)(F)c1n[nH]c(SCc2ccc(Cl)cc2)n1 | > 100 µM (inactive) | > 100 µM (inactive) | > 100 µM (inactive) | > 100 µM (inactive) | > 100 µM (inactive) | > 100 µM (inactive) | > 100 µM (inactive) | > 100 µM (inactive) | > 100 µM (inactive) | > 100 µM (inactive) | > 100 µM (inactive) | > 100 µM (inactive) | > 100 µM (inactive) | > 100 µM (inactive) |  | > 100 µM (inactive) | > 100 µM (inactive) | > 100 µM (inactive) | > 100 µM (inactive) | > 100 µM |
